According to the NIST ThermoML archive (doi:10.1016/j.tca.2007.04.012):

Key:
[1] = 298.15 K; 101.33 kPa; Liquid; Vibrating tube method
[2] = xn = mol fraction of the nth substance listed; settings: 298.15 K, 101 kPa, Liquid, Vibrating tube method
[3] = excess molar enthalpy (molar enthalpy of mixing); xn = mol fraction of the nth substance listed; settings: 298.15 K, 101 kPa, Liquid, Flow calorimetry

OCC(F)(F)F [2,2,2-trifluoroethanol]
Settings	mass density [kg/m3]
[1]	1383.41

OCC(F)(F)F [2,2,2-trifluoroethanol] + CCCO
Settings	excess molar enthalpy [kcal/mol]	mass density [kg/m3]
[2], x1 = 0.00607	–	802.48
[2], x1 = 0.01063	–	804.92
[2], x1 = 0.02216	–	810.94
[2], x1 = 0.03141	–	815.81
[2], x1 = 0.1032	–	853.69
[2], x1 = 0.2022	–	906.48
[2], x1 = 0.3118	–	965.59
[2], x1 = 0.408	–	1018.5
[2], x1 = 0.5085	–	1075.13
[2], x1 = 0.6057	–	1131.49
[2], x1 = 0.7074	–	1192.38
[2], x1 = 0.8029	–	1251.85
[2], x1 = 0.9023	–	1316.56
[2], x1 = 0.9671	–	1360.54
[2], x1 = 0.9785	–	1368.42
[2], x1 = 0.9898	–	1376.24
[2], x1 = 0.9948	–	1379.83
[2], x1 = 1	–	1383.41
[3], x1 = 0.0054	-0.00299	–
[3], x1 = 0.0092	-0.00578	–
[3], x1 = 0.02045	-0.0111	–
[3], x1 = 0.03258	-0.0163	–
[3], x1 = 0.04077	-0.0215	–
[3], x1 = 0.051	-0.026	–
[3], x1 = 0.1013	-0.0439	–
[3], x1 = 0.2013	-0.0642	–
[3], x1 = 0.3023	-0.0721	–
[3], x1 = 0.4041	-0.073	–
[3], x1 = 0.4962	-0.0645	–
[3], x1 = 0.5974	-0.0539	–
[3], x1 = 0.6998	-0.0417	–
[3], x1 = 0.7987	-0.0275	–
[3], x1 = 0.9003	-0.0137	–
[3], x1 = 0.9108	-0.0123	–
[3], x1 = 0.9211	-0.011	–
[3], x1 = 0.9333	-0.00978	–
[3], x1 = 0.9409	-0.00832	–
[3], x1 = 0.9486	-0.00703	–
[3], x1 = 0.9577	-0.00578	–
[3], x1 = 0.9694	-0.00409	–
[3], x1 = 0.9839	-0.00258	–
[3], x1 = 0.9916	-0.00108	–
[3], x1 = 0.9961	-0.000406	–

OCC(F)(F)F [2,2,2-trifluoroethanol] + CCO
Settings	excess molar enthalpy [kcal/mol]	mass density [kg/m3]
[2], x1 = 0.00449	–	788
[2], x1 = 0.00898	–	791.1
[2], x1 = 0.02012	–	798.87
[2], x1 = 0.02992	–	805.61
[2], x1 = 0.04022	–	812.7
[2], x1 = 0.05208	–	820.82
[2], x1 = 0.1002	–	853.17
[2], x1 = 0.2003	–	918.54
[2], x1 = 0.3001	–	981.36
[2], x1 = 0.3999	–	1042.13
[2], x1 = 0.5003	–	1101.6
[2], x1 = 0.6012	–	1160.07
[2], x1 = 0.7025	–	1217.72
[2], x1 = 0.7851	–	1264.15
[2], x1 = 0.9109	–	1334.11
[2], x1 = 0.92	–	1339.16
[2], x1 = 0.9299	–	1344.65
[2], x1 = 0.9497	–	1355.58
[2], x1 = 0.9597	–	1361.14
[2], x1 = 0.9697	–	1366.65
[2], x1 = 0.9798	–	1372.26
[2], x1 = 0.9897	–	1377.67
[2], x1 = 1	–	1383.41
[3], x1 = 0.00586	-0.00471	–
[3], x1 = 0.0106	-0.00946	–
[3], x1 = 0.02013	-0.0193	–
[3], x1 = 0.03032	-0.0283	–
[3], x1 = 0.03992	-0.0369	–
[3], x1 = 0.04851	-0.0448	–
[3], x1 = 0.06244	-0.0517	–
[3], x1 = 0.07146	-0.0594	–
[3], x1 = 0.08127	-0.0666	–
[3], x1 = 0.09052	-0.0739	–
[3], x1 = 0.09891	-0.0797	–
[3], x1 = 0.199	-0.1256	–
[3], x1 = 0.2992	-0.1503	–
[3], x1 = 0.3995	-0.1603	–
[3], x1 = 0.5039	-0.157	–
[3], x1 = 0.6029	-0.1387	–
[3], x1 = 0.7014	-0.1179	–
[3], x1 = 0.7964	-0.08435	–
[3], x1 = 0.8945	-0.0468	–
[3], x1 = 0.9072	-0.0426	–
[3], x1 = 0.916	-0.0381	–
[3], x1 = 0.9278	-0.0345	–
[3], x1 = 0.9389	-0.0293	–
[3], x1 = 0.9516	-0.024	–
[3], x1 = 0.9618	-0.0199	–
[3], x1 = 0.9729	-0.0139	–
[3], x1 = 0.9826	-0.00901	–
[3], x1 = 0.992	-0.00356	–
[3], x1 = 0.9988	-0.000908	–

OCC(F)(F)F [2,2,2-trifluoroethanol] + CO
Settings	excess molar enthalpy [kcal/mol]	mass density [kg/m3]
[2], x1 = 0.00435	–	790.62
[2], x1 = 0.00909	–	795.28
[2], x1 = 0.01555	–	801.57
[2], x1 = 0.01643	–	802.43
[2], x1 = 0.06693	–	849.62
[2], x1 = 0.1862	–	949.42
[2], x1 = 0.3191	–	1045.13
[2], x1 = 0.385	–	1087.8
[2], x1 = 0.4808	–	1144.91
[2], x1 = 0.5797	–	1198.76
[2], x1 = 0.6905	–	1253.74
[2], x1 = 0.8331	–	1317.38
[2], x1 = 0.9196	–	1352.57
[2], x1 = 0.9701	–	1372.13
[2], x1 = 0.9799	–	1375.89
[2], x1 = 0.9913	–	1380.01
[2], x1 = 0.9949	–	1381.47
[2], x1 = 1	–	1383.41
[3], x1 = 0.00548	-0.00519	–
[3], x1 = 0.01037	-0.00949	–
[3], x1 = 0.02045	-0.0191	–
[3], x1 = 0.02995	-0.0283	–
[3], x1 = 0.04012	-0.0376	–
[3], x1 = 0.04831	-0.0459	–
[3], x1 = 0.09938	-0.08521	–
[3], x1 = 0.1996	-0.1461	–
[3], x1 = 0.297	-0.1827	–
[3], x1 = 0.3988	-0.2023	–
[3], x1 = 0.4971	-0.2035	–
[3], x1 = 0.6027	-0.194	–
[3], x1 = 0.7098	-0.1616	–
[3], x1 = 0.8044	-0.1209	–
[3], x1 = 0.8929	-0.0647	–
[3], x1 = 0.9016	-0.0587	–
[3], x1 = 0.9113	-0.0538	–
[3], x1 = 0.9251	-0.0452	–
[3], x1 = 0.9337	-0.0388	–
[3], x1 = 0.9463	-0.0319	–
[3], x1 = 0.9602	-0.0246	–
[3], x1 = 0.9707	-0.0169	–
[3], x1 = 0.9838	-0.00875	–
[3], x1 = 0.9953	-0.0028	–
[3], x1 = 0.9987	-0.000645	–

OCC(F)(F)F [2,2,2-trifluoroethanol] + O
Settings	excess molar enthalpy [kcal/mol]	mass density [kg/m3]
[2], x1 = 0.00478	–	1005.99
[2], x1 = 0.01029	–	1016.28
[2], x1 = 0.01855	–	1031.19
[2], x1 = 0.02226	–	1037.71
[2], x1 = 0.1002	–	1139.98
[2], x1 = 0.1985	–	1215.51
[2], x1 = 0.3	–	1265.59
[2], x1 = 0.3983	–	1298.93
[2], x1 = 0.4965	–	1322.87
[2], x1 = 0.5995	–	1341.54
[2], x1 = 0.7303	–	1359.16
[2], x1 = 0.839	–	1370.38
[2], x1 = 0.9062	–	1376.17
[2], x1 = 0.9696	–	1381.16
[2], x1 = 0.98	–	1381.89
[2], x1 = 0.9899	–	1382.59
[2], x1 = 0.995	–	1382.97
[2], x1 = 1	–	1383.41
[3], x1 = 0.00546	-0.00688	–
[3], x1 = 0.01088	-0.013	–
[3], x1 = 0.02028	-0.0219	–
[3], x1 = 0.0306	-0.0252	–
[3], x1 = 0.04018	-0.0246	–
[3], x1 = 0.04984	-0.0225	–
[3], x1 = 0.05985	-0.0196	–
[3], x1 = 0.07002	-0.0159	–
[3], x1 = 0.07952	-0.0122	–
[3], x1 = 0.08986	-0.00791	–
[3], x1 = 0.09937	-0.00335	–
[3], x1 = 0.11	0.000789	–
[3], x1 = 0.1193	0.00528	–
[3], x1 = 0.1299	0.0097	–
[3], x1 = 0.1385	0.0143	–
[3], x1 = 0.1486	0.0192	–
[3], x1 = 0.1983	0.0424	–
[3], x1 = 0.2988	0.08652	–
[3], x1 = 0.3988	0.123	–
[3], x1 = 0.4955	0.1497	–
[3], x1 = 0.5989	0.1661	–
[3], x1 = 0.7078	0.1649	–
[3], x1 = 0.8079	0.1296	–
[3], x1 = 0.898	0.073	–
[3], x1 = 0.9054	0.0679	–
[3], x1 = 0.9202	0.0573	–
[3], x1 = 0.9301	0.0499	–
[3], x1 = 0.9387	0.0447	–
[3], x1 = 0.9528	0.0344	–
[3], x1 = 0.9646	0.0249	–
[3], x1 = 0.9732	0.0189	–
[3], x1 = 0.988	0.00963	–
[3], x1 = 0.9952	0.00335	–

CCO [ethanol]
Settings	mass density [kg/m3]
[1]	784.83

CCO [ethanol] + OCC(F)(F)F
Settings	mass density [kg/m3]
[2], x2 = 0	784.83

CO [methanol]
Settings	mass density [kg/m3]
[1]	786.3

CO [methanol] + OCC(F)(F)F
Settings	mass density [kg/m3]
[2], x2 = 0	786.3

CCCO [propan-1-ol]
Settings	mass density [kg/m3]
[1]	799.3

CCCO [propan-1-ol] + OCC(F)(F)F
Settings	mass density [kg/m3]
[2], x2 = 0	799.3
